The values below come from ChEMBL document CHEMBL1135318 (Bioorg Med Chem Lett, 2002).

The target of test [1] is T1, Muscarinic acetylcholine receptor M3 (Homo sapiens, UniProt P20309). The test is described as follows: Displacement of [3H]N-methylscopolamine from membrane preparation from CHO-K1 cells for Muscarinic acetylcholine receptor M3. In kind it is cell membranes. The note with it: concentration not given here. (In general: In a radioligand displacement assay an active substance lowers the binding of a labelled ligand.)
Target sequence in this assay (P20309 whole entry, looked up): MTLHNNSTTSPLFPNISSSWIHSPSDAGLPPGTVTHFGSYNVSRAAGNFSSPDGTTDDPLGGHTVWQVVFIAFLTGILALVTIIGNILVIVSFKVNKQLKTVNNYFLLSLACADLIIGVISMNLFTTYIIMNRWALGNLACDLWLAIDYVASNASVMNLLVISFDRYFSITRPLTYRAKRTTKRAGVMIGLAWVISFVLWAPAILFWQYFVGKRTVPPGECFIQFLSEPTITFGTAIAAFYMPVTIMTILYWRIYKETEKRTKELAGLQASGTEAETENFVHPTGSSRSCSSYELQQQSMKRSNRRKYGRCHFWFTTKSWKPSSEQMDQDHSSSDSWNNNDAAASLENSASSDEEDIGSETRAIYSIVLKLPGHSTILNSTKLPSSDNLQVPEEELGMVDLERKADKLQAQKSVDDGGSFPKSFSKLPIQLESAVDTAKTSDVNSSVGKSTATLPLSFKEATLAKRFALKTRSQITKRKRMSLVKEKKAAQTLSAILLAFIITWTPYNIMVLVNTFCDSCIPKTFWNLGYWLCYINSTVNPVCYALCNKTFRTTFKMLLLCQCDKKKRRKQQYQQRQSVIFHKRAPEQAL

Test [2] addresses T2, Muscarinic acetylcholine receptor M2 (Homo sapiens) (UniProt P08172).
T2 sequence (whole entry): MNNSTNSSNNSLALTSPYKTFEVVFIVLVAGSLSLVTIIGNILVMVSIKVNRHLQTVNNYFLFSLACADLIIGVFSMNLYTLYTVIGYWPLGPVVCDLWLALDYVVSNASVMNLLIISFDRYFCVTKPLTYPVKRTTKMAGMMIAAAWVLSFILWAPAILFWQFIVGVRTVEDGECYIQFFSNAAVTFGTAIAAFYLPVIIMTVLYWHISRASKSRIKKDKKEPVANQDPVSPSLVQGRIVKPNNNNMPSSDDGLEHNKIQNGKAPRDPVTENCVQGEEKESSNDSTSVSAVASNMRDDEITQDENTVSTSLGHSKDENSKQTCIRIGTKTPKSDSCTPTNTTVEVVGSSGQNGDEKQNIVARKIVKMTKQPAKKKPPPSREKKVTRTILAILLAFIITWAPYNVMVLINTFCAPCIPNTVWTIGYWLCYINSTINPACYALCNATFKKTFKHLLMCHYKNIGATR
Kind of test: Displacement of [3H]N-methylscopolamine from membrane preparation from CHO-K1 cells for Muscarinic acetylcholine receptor M2. In kind it is cell membranes. Particulars: concentration not given here.

Test [3] addresses T3, Muscarinic acetylcholine receptor M2 (Homo sapiens, UniProt P08172).
T3 sequence (P08172 whole entry): T2 sequence (whole entry)
Kind of test: In vitro affinity for muscarinic M2 receptor.

The target in test [4] is T1, Muscarinic acetylcholine receptor M3. Kind of test: In vitro affinity for muscarinic M3 receptor.
Target sequence in this assay (P20309 whole entry): as the sequence (P20309 whole entry, looked up) above
The target in test [5] is T2, Muscarinic acetylcholine receptor M2 (Homo sapiens). The test is described as follows: Displacement of [3H]N-methylscopolamine from membrane preparation from CHO-K1 cells for Muscarinic acetylcholine receptor M2; value given as 20-50%. In kind it is cell membranes. Particulars: concentration not given here.
In test [6] the target is T1, Muscarinic acetylcholine receptor M3. The test is described as follows: Displacement of [3H]N-methylscopolamine from membrane preparation from CHO-K1 cells for Muscarinic acetylcholine receptor M3; value given as 20-50%. The class given is cell membranes. The note with it: concentration not given here.
Target sequence in this assay (P20309 whole entry, looked up): as the sequence (P20309 whole entry, looked up) above

A value given as a limit tells only on which side of the number the result lay.

By inhibition is commonly meant the change of the read-out against control, counted positive when it falls. Low values mean a response near the control, high ones a response far below the control. For the molecule `O=C(c1cccs1)N(C1CCC1)C1CCN(Cc2ccccc2)CC1`, the inhibition in test [1] and in test [2] was less than 20% throughout.

One may read the Ki as a dissociation constant, usually derived from enzyme kinetics or from competition with a known ligand. Low values mean tighter binding, high ones weaker binding. Regarding `O=C(c1ccccc1)N(Cc1ccccc1)C1CCN(Cc2ccccc2)CC1`, the Ki was 631 nM in test [3] and 158 nM in test [4].

`O=C(c1ccccc1)N(C1CCC1)C1CCN(Cc2ccccc2)CC1`: the inhibition in test [5] and in test [6] was 20% in each case.
